Measured values taken from US20220049238A1, “Synthetic Matrix Assembled and Rapidly Templated Spheroids, Organoids and 3D Cell Cultures” (Rutgers, The State University of New Jersey, priority 2020, published 2022).

Tested on: IPSC-NSC
Experiment: Neuronal differentiation of hybrid spheroids with DAPT loaded on nanosheets (qPCR, immunostaining)
Assay type: cell-based
Protocol: Lastly, because Mn^2+ ions are MRI active, they could be used for MRI monitoring of degradation and drug release. A 7-day degradation study was performed, and it was shown that the Mn2+ ions generated correlated with the amount of the fluorescent model drug that was released, showing that the drug was released through the degradation of the scaffold nanosheets. After confirming the drug loading and degradation properties of the scaffold nanosheets and the hybrid spheroids, varying concentrations of DAPT were then loaded on the surface of the nanosheets at […] of from 0 to 50 μM. The spheres were cultured for 7 days and then the neuronal differentiation was analyzed using both qPCR and immunostaining.

[1] = day 7, loaded concentration of 5 and 10 μM

C[C@H](NC(=O)Cc1cc(F)cc(F)c1)C(=O)N[C@H](C(=O)OC(C)(C)C)c1ccccc1 [DAPT, N-[N-(3,5-difluorophenacetyl)-L-alanyl]-S-phenylglycine t-butyl ester]
cell death (50 μM condition): significant cell death | neurogenesis (50 μM condition): impaired neurogenesis | Tuj1 positive cells by immunostaining [1]: significant increase in Tuj1 positive cells | axon length [1]: longer axons | increase in mRNA expression of Tuj1 [1]: ca. 1.8 fold | mature phenotype markers Map2 and NeuN (qPCR and immunostaining) [1]: increase in mature phenotype markers
